Measured values: patent US8697869B2, “3-(heteroaryl-amino)-1,2,3,4-tetrahydro-9H-carbazole derivatives and their use as prostaglandin D2 receptor modulators” (Actelion Pharmaceuticals Ltd., priority 2010, dated 2014)
pIC50: −log10 of the molar value.

Legend:
hCRTH2 receptor [1] = target: T1, hCRTH2 receptor (Homo sapiens (Human), UniProt Q9Y5Y4); assay: Radioligand displacement assay in presence of human serum albumin (HSA); settings: 3H-PGD2 2.5 nM, Binding-Buffer with 0.5% HSA instead of 0.1% BSA
Experimental: (§1) First, recombinant HEK293-hCRTH2 cells were detached from culture plates into 5 ml buffer A/plate (Buffer A: 5 mM Tris, 1 mM MgCl2-6H2O pH=7.4) using a rubber policeman. Cells were then transferred into centrifugation tubes and centrifuged for 5 min at 400 g. The cell pellet was resuspended in the same buffer and tubes were frozen at −80° C. Cells were thawed and membrane fragments were generated by homogenization using a polytron homogenizer (30 seconds). The membrane fragments were then centrifuged at 3000 g for 20 minutes and resuspended in buffer C (Buffer C: 75 mM Tris, 25 mM MgCl2, 250 mM Saccharose pH 7.4). Aliquots of membrane fragements were stored at −20° C.
(§2) Binding assay was performed in a final assay volume of 250 μl. First, 25 μl of test compound, previously diluted in Binding-Buffer (Binding-Buffer: 50 mM Tris-Base, 100 mM NaCl, 1 mM EDTA, 0.1% BSA (protease free), 0.01% NaN3, 10 mM MnCl2 pH 7.0) was placed into each well. After addition of 75 μl Binding-Buffer, 50 μl of the radioligand ^3H-PGD2 (at 2.5 nM (220.000 dpm/well) from ANAWA ART0662) was added to each well. Binding assay was started by addition of 100 μl CRTH2 membrane fragments, reaching a final concentration of 20 μg/well. For non-specific binding, PGD2 was added to the reaction mixture to […] final concentration. This assay mix was incubated for 90 minutes at room temperature and then filtered through a GF/C filter 96-well plate which was pre-soaked for 3 hours in 0.5% polyethyleneimine (PEI). The filter-wells were washed three times with ice cold Binding-Buffer. Then, 40 μl of Microscint-40 (Packard) was added to each well and the retained radioactivity quantified in a Topcount (Packard).
Radioligand Displacement Assay-Human Serum Albumin (HSA):
Radioligand displacement assay in presence of human serum albumin (HSA) was performed as described above, with following modifications. Binding-Buffer-HSA: Binding-buffer+0.5% Sigma Albumin from Human serum A1887 (instead of 0.1% BSA). A volume of 25 μl test compound, previously diluted in Binding-Buffer-HSA was placed into each well. After addition of 75 μl Binding-Buffer-HSA, 50 μl of ^3H-PGD2 (at 2.5 nM (220.000 dpm/well) from ANAWA ART0662) was added to each well. Remaining protocol was identical as described above.

eosinophils = assay: Eosinophil shape change assay with human plasma; assay type: cell-based; settings: Eosinophil; human polymorphonuclear cells, 50% human plasma, activated with 100 nM PGD2
Experimental: After obtaining informed consent, blood samples were drawn by venipuncture according to the protocol approved by the ethics committee of Basel, Switzerland. Polymorphonuclear leukocytes (containing eosinophils, basophils and neutrophils) were isolated using the Polymorphprep™ method (Axis-Shield). In brief, anticoagulated whole blood was layered onto a Polymorphprep gradient (density 1.113 g/ml) and centrifuged at 500 g for 30 min. The polymorphonuclear cell fraction was harvested and depleted for erythrocytes by hypotonic saline lysis.
The polymorphonuclear cells were resuspended in assay buffer (1×PBS with Ca^2+/Mg^2+ supplemented with 0.1% BSA, 10 mM HEPES, and 10 mM Glucose, pH 7.4) at 5×10^6 cells/ml and stained with anti-CD49d-APC ((APC=Allophycocyanin) for 1 hour at RT. Test compounds, at various concentrations, were preincubated 10 min in human plasma (anticoagulated with a thrombin inhibitor). Then, human plasma was added to the polymorphonuclear cells to 50% of final assay volume with polymorphonuclear cells at 4×10^6 cells/rd. After incubation for 10 minutes at 37° C., the polymorphonuclear cells were activated for 5 min at 37° C. by addition of PGD2 at 100 nM final concentration. Activation was stopped by addition of 0.5 ml paraformaldehyde (1%).
Immediately after fixation with paraformaldehyde, the samples were analyzed by FACSCanto flow cytometer (BD Biosciences) and target cells were identified by their forward-scatter (FSC) and side-scatter (SSC) characteristics. Eosinophils were identified by the anti-CD49d-APC signal and their characteristic side-scatter (SSC) profile. Shape change responses, indicative of eosinophil activation, were quantified as the percent of cells with an increased forward-scatter.

hCRTH2 receptor [2] = target: T1, hCRTH2 receptor; assay: hCRTH2 receptor membranes radioligand displacement assay (3H-PGD2); settings: 3H-PGD2 2.5 nM, HEK293-hCRTH2 membranes, Binding-Buffer with 0.1% BSA
Experimental: Biological Assays: Preparation of hCRTH2 Receptor Membranes and Radioligand Displacement Assay:
as §1, §2

T1 sequence (Q9Y5Y4 whole entry, the tested form may be a part): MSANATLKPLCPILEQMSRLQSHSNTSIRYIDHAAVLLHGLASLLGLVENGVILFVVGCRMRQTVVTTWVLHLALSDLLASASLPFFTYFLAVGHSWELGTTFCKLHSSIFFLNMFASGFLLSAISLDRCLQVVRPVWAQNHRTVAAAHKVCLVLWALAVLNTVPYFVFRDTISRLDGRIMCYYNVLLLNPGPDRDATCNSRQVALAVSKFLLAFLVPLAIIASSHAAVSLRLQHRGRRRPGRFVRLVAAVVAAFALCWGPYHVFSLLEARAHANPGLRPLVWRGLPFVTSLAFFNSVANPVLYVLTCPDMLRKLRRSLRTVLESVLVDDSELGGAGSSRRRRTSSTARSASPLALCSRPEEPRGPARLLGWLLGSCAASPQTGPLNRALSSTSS

pIC50 (hCRTH2 receptor [1])	pIC50 (eosinophils)	pIC50 (hCRTH2 receptor [2])	Structure (SMILES)
7.55	8.22	8.85	CN(c1nc2cc(Cl)ccc2o1)[C@H]1CCc2c(c3cc(F)ccc3n2CC(=O)O)C1 [Example 18, (3S)-2-(3-((5-chlorobenzo[d]oxazol-2-yl)(methyl)amino)-6-fluoro-3,4-dihydro-1H-carbazol-9(2H)-yl)acetic acid]
8.05	8.70	8.92	CN(c1nc2ccc(F)cc2s1)[C@H]1CCc2c(c3cc(F)ccc3n2CC(=O)O)C1 [Example 38, (3S)-2-(6-fluoro-3-((6-fluorobenzo[d]thiazol-2-yl)(methyl)amino)-3,4-dihydro-1H-carbazol-9(2H)-yl)acetic acid]
8.22	7.80	8.51	CN(c1nc2cc(F)ccc2s1)[C@H]1CCc2c(c3cc(F)ccc3n2CC(=O)O)C1 [Example 39, (3S)-2-(6-fluoro-3-((5-fluorobenzo[d]thiazol-2-yl)(methyl)amino)-3,4-dihydro-1H-carbazol-9(2H)-yl)acetic acid]
7.85	8.10	8.23	COCCN(c1ncc(Cl)cn1)[C@H]1CCc2c(c3cc(F)ccc3n2CC(=O)O)C1 [Example 34, (3S)-2-(3-((5-chloropyrimidin-2-yl)(2-methoxyethyl)amino)-6-fluoro-3,4-dihydro-1H-carbazol-9(2H)-yl)acetic acid]
7.77	7.89	8.41	CCCN(c1ncc(Cl)cn1)[C@H]1CCc2c(c3cc(F)ccc3n2CC(=O)O)C1 [Example 25, (3S)-2-(3-((5-chloropyrimidin-2-yl)(propyl)amino)-6-fluoro-3,4-dihydro-1H-carbazol-9(2H)-yl)acetic acid]
6.52		8.06	CN(c1ncc(Cl)cn1)C1CCc2c(c3cc(OC(F)(F)F)ccc3n2CC(=O)O)C1 (centres unmarked) [Example 56, 2-(3-((5-chloropyrimidin-2-yl)(methyl)amino)-6-(trifluoromethoxy)-3,4-dihydro-1H-carbazol-9(2H)-yl)acetic acid]
7.40		8.09	CN(c1nc2ccccc2s1)[C@H]1CCc2c(c3cc(F)ccc3n2CC(=O)O)C1 [Example 20, (3S)-2-(3-(benzo[d]thiazol-2-yl(methyl)amino)-6-fluoro-3,4-dihydro-1H-carbazol-9(2H)-yl)acetic acid]
7.37		8.14	COc1cnc(N(C)[C@H]2CCc3c(c4cc(F)ccc4n3CC(=O)O)C2)nc1 [Example 31, (3S)-2-(6-fluoro-3-((5-methoxypyrimidin-2-yl)(methyl)amino)-3,4-dihydro-1H-carbazol-9(2H)-yl)acetic acid]
7.89		8.28	CN(c1ccc(Cl)cn1)[C@H]1CCc2c(c3cc(F)ccc3n2CC(=O)O)C1 [Example 37, (3S)-2-(3-((5-chloropyridin-2-yl)(methyl)amino)-6-fluoro-3,4-dihydro-1H-carbazol-9(2H)-yl)acetic acid]
7.80		8.29	CN(c1ncc(Cl)cn1)C1CCc2c(c3ccccc3n2CC(=O)O)C1 (centres unmarked) [Example 53, 2-(3-((5-chloropyrimidin-2-yl)(methyl)amino)-3,4-dihydro-1H-carbazol-9(2H)-yl)acetic acid]
8.10		8.01	CN(c1ccc(F)cn1)[C@H]1CCc2c(c3cc(F)ccc3n2CC(=O)O)C1 [Example 36, (3S)-2-(6-fluoro-3-((5-fluoropyridin-2-yl)(methyl)amino)-3,4-dihydro-1H-carbazol-9(2H)-yl)acetic acid]
6.42		7.80	CN(c1nc(C(F)(F)F)nc2ccccc12)[C@H]1CCc2c(c3cc(F)ccc3n2CC(=O)O)C1 [Example 22, (3S)-2-(6-fluoro-3-(methyl(2-(trifluoromethyl)quinazolin-4-yl)amino)-3,4-dihydro-1H-carbazol-9(2H)-yl)acetic acid]
